From patent US20240182481A1 (Tango Therapeutics, Inc., priority 2021, published 2024)

What was measured:
USP1-UAF1 = USP1-UAF1 (Homo sapiens, UniProt O94782); assay: Ubiquitin Rhodamine assay for USP1-UAF1 activity; assay type: biochemical
Procedure: Certain compounds of the disclosure were assessed for USP1-UAF1 activity in a Ubiquitin Rhodamine assay as described in Example 135.

[1] = tested on: MDA-MB-436 (BRCA1 mutant) cell line; assay: Viability assay in BRCA1 mutant cell line MDA-MB-436; assay type: cell-based; conditions: Homo sapiens, MDA-MB-436, viability, BRCA1 mutant MDA-MB-436; read-out: MDA-MB-436 rel IC50
Source text: (§1) Table 1 also indicates IC50 values in a viability assay for a non-isogenic pair of BRCA1 mutant (column 5—MDA-MB-436) and BRCA1 WT (column 6—HCC1954) cell lines. These values indicate the effect of treatment with compound on cell survival.

[2] = tested on: HCC1954 (BRCA1 WT) cell line; assay: Viability assay in BRCA1 WT cell line HCC1954; assay type: cell-based; conditions: Homo sapiens, read-out: HCC 1954 IC50 rel IC50
Source text: as §1

monoubiquitinated PCNA = assay: AlphaLISA assay measuring monoubiquitinated PCNA in MDA-MB-436; assay type: cell-based; conditions: Homo sapiens, read-out: Alpha LISA IC50
Source text: Table 1 also indicates IC50 values for exemplary compounds in an AlphaLISA assay measuring monoubiquitinated PCNA in a BRCA1 mutant cell line (MDA-MB-436; column 7).

Chain of USP1-UAF1 (O94782 whole entry): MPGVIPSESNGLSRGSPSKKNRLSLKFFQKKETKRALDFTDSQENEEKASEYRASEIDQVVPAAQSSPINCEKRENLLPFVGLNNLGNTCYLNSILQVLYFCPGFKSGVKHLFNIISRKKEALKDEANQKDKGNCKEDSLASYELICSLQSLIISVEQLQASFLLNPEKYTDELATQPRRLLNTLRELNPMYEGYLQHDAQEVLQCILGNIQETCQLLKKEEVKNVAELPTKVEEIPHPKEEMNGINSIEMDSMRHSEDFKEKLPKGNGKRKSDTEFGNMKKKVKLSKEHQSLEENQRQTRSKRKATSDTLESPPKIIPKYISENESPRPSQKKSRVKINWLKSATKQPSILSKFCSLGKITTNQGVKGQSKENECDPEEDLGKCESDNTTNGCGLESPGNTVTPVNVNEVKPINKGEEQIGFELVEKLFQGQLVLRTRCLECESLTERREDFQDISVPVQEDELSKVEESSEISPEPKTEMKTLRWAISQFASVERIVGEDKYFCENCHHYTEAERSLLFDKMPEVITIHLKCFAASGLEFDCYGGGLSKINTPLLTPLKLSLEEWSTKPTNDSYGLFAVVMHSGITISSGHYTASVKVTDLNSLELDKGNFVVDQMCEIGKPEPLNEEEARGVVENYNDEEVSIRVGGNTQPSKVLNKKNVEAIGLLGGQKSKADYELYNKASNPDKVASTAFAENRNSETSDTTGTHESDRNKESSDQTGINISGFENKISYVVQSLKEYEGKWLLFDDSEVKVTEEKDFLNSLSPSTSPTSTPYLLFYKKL
Chain of USP1-UAF1 (Q8TAF3 whole entry partner): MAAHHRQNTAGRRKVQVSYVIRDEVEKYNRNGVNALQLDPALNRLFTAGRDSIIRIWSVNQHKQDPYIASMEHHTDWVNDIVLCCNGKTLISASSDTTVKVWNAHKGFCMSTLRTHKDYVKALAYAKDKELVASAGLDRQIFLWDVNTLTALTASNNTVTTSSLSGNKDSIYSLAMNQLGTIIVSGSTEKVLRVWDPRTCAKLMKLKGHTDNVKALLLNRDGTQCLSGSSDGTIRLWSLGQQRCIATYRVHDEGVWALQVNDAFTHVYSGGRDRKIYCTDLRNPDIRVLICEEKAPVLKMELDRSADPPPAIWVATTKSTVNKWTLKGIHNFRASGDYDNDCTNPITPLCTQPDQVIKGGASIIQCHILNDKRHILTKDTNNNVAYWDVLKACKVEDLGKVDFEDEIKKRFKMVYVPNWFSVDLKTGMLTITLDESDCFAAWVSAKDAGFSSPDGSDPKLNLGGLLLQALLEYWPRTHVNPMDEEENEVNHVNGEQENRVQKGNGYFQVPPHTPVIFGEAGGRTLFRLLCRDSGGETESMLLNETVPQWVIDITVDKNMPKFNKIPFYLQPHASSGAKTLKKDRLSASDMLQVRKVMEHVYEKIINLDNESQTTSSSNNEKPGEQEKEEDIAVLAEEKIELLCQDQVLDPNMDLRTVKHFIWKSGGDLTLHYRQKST

Row | IC50 (USP1-UAF1) | IC50 [1] | IC50 [2] | IC50 (monoubiquitinated PCNA) | SMILES
1 | < 0.03 µM | < 0.1 µM | ≥ 10 µM | < 0.1 µM | COc1ncnc(C2CC2)c1-c1cc2c(Cc3ccc(-c4nc(C(F)(F)F)cn4C)cc3)n[nH]c2cn1 [Compound 177, 5-(4-cyclopropyl-6-methoxypyrimidin-5-yl)-3-(4-(1-methyl-4-(trifluoromethyl)-1H-imidazol-2-yl)benzyl)-1H-pyrazolo[3,4-c]pyridine]
2 | 0.03 to 0.1 µM | < 0.1 µM | 0.25 to 10 µM | < 0.1 µM | CNCc1[nH]c2cnc(-c3cccnc3C3CC3)nc2c1Cc1ccc(-c2nc(C(F)(F)F)cn2C)cc1 [Compound 178, 1-[2-(2-cyclopropyl-3-pyridyl)-7-[[4-[1-methyl-4-(trifluoromethyl)imidazol-2-yl]phenyl]methyl]-5H-pyrrolo[3,2-d]pyrimidin-6-yl]-N-methyl-methanamine]
3 | 0.1 to 10 µM | 0.1 to 0.25 µM | ≥ 10 µM | 0.1 to 0.25 µM | COc1ncnc(C2CC2)c1-c1ncc2[nH]cc(Sc3ccc(-c4nc(C(F)(F)F)cn4C)cc3)c2n1 [Compound 180]
4 | < 0.03 µM | < 0.1 µM | ≥ 10 µM | < 0.1 µM | COc1ncnc(C2CC2)c1-c1ncc2[nH]c(F)c(Cc3ccc(-c4nc(C(F)(F)F)cn4C)cc3)c2n1 [Compound 181, 2-(4-cyclopropyl-6-methoxy-pyrimidin-5-yl)-6-fluoro-7-[[4-[1-methyl-4-(trifluoromethyl)imidazol-2-yl]phenyl]methyl]-5H-pyrrolo[3,2-d]pyrimidine]
5 | 0.03 to 0.1 µM | 0.1 to 0.25 µM | ≥ 10 µM | < 0.1 µM | COc1ncnc(OC)c1-c1ncc2[nH]cc(Cc3ccc(-c4nc(C(F)(F)F)cn4C(C)C)cc3)c2n1 [Compound 182]
6 | < 0.03 µM | < 0.1 µM | ≥ 10 µM | < 0.1 µM | Cn1cc(C(F)(F)F)nc1-c1ccc(Cc2n[nH]c3cnc(-c4c(C5CC5)ncnc4C4CC4)nc23)cc1 [Compound 183, 5-(4,6-dicyclopropylpyrimidin-5-yl)-3-[[4-[1-methyl-4-(trifluoromethyl)imidazol-2-yl]phenyl]methyl]-1H-pyrazolo[4,3-d]pyrimidine]
7 | 0.03 to 0.1 µM | < 0.1 µM | 0.25 to 10 µM | < 0.1 µM | COc1nc(C)nc(C2CC2)c1-c1ncc2[nH]nc(Cc3ccc(-c4nc(C(F)(F)F)cn4C)cc3)c2n1 [Compound 184, 5-(4-cyclopropyl-6-methoxy-2-methylpyrimidin-5-yl)-3-(4-(1-methyl-4-(trifluoromethyl)-1H-imidazol-2-yl)benzyl)-1H-pyrazolo[4,3-d]pyrimidine]
8 | < 0.03 µM | < 0.1 µM | ≥ 10 µM | < 0.1 µM | Cn1cc(C(F)(F)F)nc1-c1ccc(Cc2n[nH]c3cnc(-c4c(OC(F)F)ncnc4C4CC4)nc23)cc1 [Compound 185, 5-[4-cyclopropyl-6-(difluoromethoxy)pyrimidin-5-yl]-3-[[4-[1-methyl-4-(trifluoromethyl)imidazol-2-yl]phenyl]methyl]-1H-pyrazolo[4,3-d]pyrimidine]
9 | 0.03 to 0.1 µM | 0.1 to 0.25 µM | 0.25 to 10 µM | 0.1 to 0.25 µM | Cn1cc(C(F)(F)F)nc1-c1ccc(Cc2c(CN)[nH]c3cnc(-c4cccnc4C4CC4)nc23)cc1 [Compound 186]

Further lines, the molecule ahead of its results:

Row | SMILES | IC50 (USP1-UAF1) | IC50 [1] | IC50 [2] | IC50 (monoubiquitinated PCNA)
10 | COc1ncnc(C2CC2)c1-c1ncc2[nH]cc(Cc3ccc(-c4nc(C(F)(F)F)cn4C4COC4)cc3)c2n1 [Compound 154, 2-(4-cyclopropyl-6-methoxy-pyrimidin-5-yl)-7-[[4-[1-(oxetan-3-yl)-4-(trifluoromethyl)imidazol-2-yl]phenyl]methyl]-5H-pyrrolo[3,2-d]pyrimidine] | 0.03 to 0.1 µM | < 0.1 µM | ≥ 10 µM | 0.1 to 0.25 µM
11 | CNCc1[nH]c2cnc(-c3c(OC)ncnc3C3CC3)nc2c1Cc1ccc(-c2nc(C(F)(F)F)cn2C)cc1 [Compound 159, 1-[2-(4-cyclopropyl-6-methoxy-pyrimidin-5-yl)-7-[[4-[1-methyl-4-(trifluoromethyl)imidazol-2-yl]phenyl]methyl]-5H-pyrrolo[3,2-d]pyrimidin-6-yl]-N-methyl-methanamine] | 0.1 to 10 µM | 0.1 to 0.25 µM | 0.25 to 10 µM | 0.1 to 0.25 µM
12 | COc1ncnc(C2CC2)c1-c1nc(OC)c2[nH]cc(Cc3ccc(-c4nc(C(F)(F)F)cn4C)cc3)c2n1 [Compound 160] | 0.1 to 10 µM | 0.1 to 0.25 µM | 0.25 to 10 µM | 0.25 to 10 µM
13 | COc1ccnc(C2CC2)c1-c1ncc2[nH]cc(Cc3ccc(-c4nc(C(F)(F)F)cn4C)cc3)c2n1 [Compound 161] | 0.03 to 0.1 µM | < 0.1 µM | ≥ 10 µM | 0.1 to 0.25 µM
14 | COc1ncnc(C2CC2)c1-c1ncc2[nH]cc(Cc3cc(F)c(-n4nc(C(F)(F)F)cc4C)c(F)c3)c2n1 [Compound 162, 2-(4-cyclopropyl-6-methoxy-pyrimidin-5-yl)-7-[[3,5-difluoro-4-[5-methyl-3-(trifluoromethyl)pyrazol-1-yl]phenyl]methyl]-5H-pyrrolo[3,2-d]pyrimidine] | < 0.03 µM | < 0.1 µM | ≥ 10 µM | < 0.1 µM
15 | [2H]C([2H])([2H])Oc1ncnc(C2CC2)c1-c1ncc2[nH]nc(Cc3ccc(-c4nc(C(F)(F)F)cn4C)cc3)c2n1 [Compound 163, 5-[4-cyclopropyl-6-(trideuteriomethoxy)pyrimidin-5-yl]-3-[[4-[1-methyl-4-(trifluoromethyl)imidazol-2-yl]phenyl]methyl]-1H-pyrazolo[4,3-d]pyrimidine] | < 0.03 µM | < 0.1 µM | ≥ 10 µM | < 0.1 µM
16 | COc1ncnc(C2CC2)c1-c1ncc2nn(S(C)(=O)=O)c(Cc3ccc(-c4nc(C(F)(F)F)cn4C)cc3)c2n1 [Compound 164, 5-(4-cyclopropyl-6-methoxy-pyrimidin-5-yl)-2-methylsulfonyl-3-[[4-[1-methyl-4-(trifluoromethyl)imidazol-2-yl]phenyl]methyl]pyrazolo[4,3-d]pyrimidine] | 0.03 to 0.1 µM | < 0.1 µM | ≥ 10 µM | < 0.1 µM
17 | CCn1cc(C(F)(F)F)nc1-c1ccc(Cc2n[nH]c3cnc(-c4c(OC)ncnc4C4CC4)nc23)cc1 [Compound 165, 5-(4-cyclopropyl-6-methoxypyrimidin-5-yl)-3-(4-(1-ethyl-4-(trifluoromethyl)-1H-imidazol-2-yl)benzyl)-1H-pyrazolo[4,3-d]pyrimidine] | < 0.03 µM | < 0.1 µM | ≥ 10 µM | < 0.1 µM
18 | COc1ncnc(C2CC2)c1-c1ncc2c(n1)c(Sc1ccc(-c3nc(C(F)(F)F)cn3C)cc1)cn2C [Compound 166] | 0.1 to 10 µM | 0.1 to 0.25 µM | ≥ 10 µM | 0.25 to 10 µM
19 | COc1ncnc(C2CC2)c1-c1cc2c(Oc3ccc(-c4nc(C(F)(F)F)cn4C)cc3)c[nH]c2cn1 [Compound 167, 5-(4-cyclopropyl-6-methoxy-pyrimidin-5-yl)-3-[4-[1-methyl-4-(trifluoromethyl)imidazol-2-yl]phenoxy]-1H-pyrrolo[2,3-c]pyridine] | 0.03 to 0.1 µM | < 0.1 µM | ≥ 10 µM | < 0.1 µM
20 | Cn1cc(C(F)(F)F)nc1-c1ccc(C(O)c2c[nH]c3cnc(-c4c(OC(F)F)ncnc4C4CC4)nc23)cc1 (stereo not shown) [Compound 168, [2-[4-cyclopropyl-6-(difluoromethoxy)pyrimidin-5-yl]-5H-pyrrolo[3,2-d]pyrimidin-7-yl]-[4-[1-methyl-4-(trifluoromethyl)imidazol-2-yl]phenyl]methanol] | 0.03 to 0.1 µM | < 0.1 µM | 0.25 to 10 µM | < 0.1 µM
21 | COc1ncnc(C2CC2)c1-c1ncc2[nH]nc(Cc3cc(F)c(-c4nc(C(F)(F)F)cn4C)c(F)c3)c2n1 [Compound 171, 5-(4-cyclopropyl-6-methoxy-pyrimidin-5-yl)-3-[[3,5-difluoro-4-[1-methyl-4-(trifluoromethyl)imidazol-2-yl]phenyl]methyl]-1H-pyrazolo[4,3-d]pyrimidine] | < 0.03 µM | < 0.1 µM | ≥ 10 µM | < 0.1 µM
22 | COc1ncnc(C2CC2(F)F)c1-c1ncc2[nH]nc(Cc3ccc(-c4nc(C(F)(F)F)cn4C)cc3)c2n1 (stereo not shown) [Compound 172, 5-[4-(2,2-difluorocyclopropyl)-6-methoxy-pyrimidin-5-yl]-3-[[4-[1-methyl-4-(trifluoromethyl)imidazol-2-yl]phenyl]methyl]-1H-pyrazolo[4,3-d]pyrimidine] | < 0.03 µM | < 0.1 µM | ≥ 10 µM | < 0.1 µM
23 | Cn1cc(C(F)(F)F)nc1-c1ccc(Cc2n[nH]c3cnc(-c4c(C5CC5)ccnc4C4CC4)nc23)cc1 [Compound 174] | < 0.03 µM | 0.1 to 0.25 µM | ≥ 10 µM | 0.1 to 0.25 µM
24 | CNc1ncnc(C2CC2)c1-c1ncc2[nH]cc(Cc3ccc(-c4nc(C(F)(F)F)cn4C)cc3)c2n1 [Compound 175] | 0.1 to 10 µM | 0.1 to 0.25 µM | ≥ 10 µM | 0.1 to 0.25 µM
25 | COc1ncnc(C2CC2)c1-c1ncc2[nH]c(CN(C)C)c(Cc3ccc(-c4nc(C(F)(F)F)cn4C)cc3)c2n1 [Compound 176, 1-[2-(4-cyclopropyl-6-methoxy-pyrimidin-5-yl)-7-[[4-[1-methyl-4-(trifluoromethyl)imidazol-2-yl]phenyl]methyl]-5H-pyrrolo[3,2-d]pyrimidin-6-yl]-N,N-dimethyl-methanamine] | 0.03 to 0.1 µM | < 0.1 µM | ≥ 10 µM | < 0.1 µM
